According to US7700272B2, “Polynucleotides encoding acetylcholine-gated chloride channel subunits of Caenorhabditis elegans” (priority 2004, dated 2010):
Where “and” joins values, the source holds several entries; their conditions need not be identical. Identical values can stand only once. Entries after “also recorded” stand apart in the source; their conditions may differ. Like-named read-outs stand apart in the source and are kept apart here. Marks after values point to notes of the source that are not given here.

Columns and labels:
[1] = biological target: rat α9nAChRs (Rattus norvegicus, UniProt P43144); settings: cited from earlier work
Chain of rat α9nAChRs (P43144 26-479): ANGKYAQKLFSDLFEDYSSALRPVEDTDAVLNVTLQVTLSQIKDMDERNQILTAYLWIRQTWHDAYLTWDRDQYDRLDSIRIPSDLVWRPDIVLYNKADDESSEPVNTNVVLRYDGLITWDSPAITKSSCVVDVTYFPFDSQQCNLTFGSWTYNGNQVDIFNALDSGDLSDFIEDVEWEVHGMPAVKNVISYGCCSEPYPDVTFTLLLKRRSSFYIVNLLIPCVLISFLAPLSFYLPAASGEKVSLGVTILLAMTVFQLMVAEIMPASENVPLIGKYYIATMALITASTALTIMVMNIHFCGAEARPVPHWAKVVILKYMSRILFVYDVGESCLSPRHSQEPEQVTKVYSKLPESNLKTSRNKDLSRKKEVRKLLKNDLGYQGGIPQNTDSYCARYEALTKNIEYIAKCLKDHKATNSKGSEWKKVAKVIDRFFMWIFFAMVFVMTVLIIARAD

[2] = test system: Aplysia receptors mediating the slow desensitizing chloride-dependent response; settings: cited from earlier work; for EC50: read-out: EC50 (range)
[3] = biological target: T1, ACC-1G6.4 channel (Caenorhabditis elegans, UniProt Q21005); test: Two-electrode voltage-clamp of Xenopus oocytes expressing ACC-1G6.4 homomeric channel; format: cell-based, C. elegans; settings: for response (in words): 1 mM
T1 construct: Agonist: percentage of maximal acetylcholine-elicited response; other: compound at 0.1 mM; Agonist: percentage of maximal acetylcholine-elicited response; other: compound at 0.2 mM; other: compound at 0.4 mM; other: compound at 0.8 mM; Agonist: percentage of maxim
T1 sequence (Q21005 whole entry, looked up): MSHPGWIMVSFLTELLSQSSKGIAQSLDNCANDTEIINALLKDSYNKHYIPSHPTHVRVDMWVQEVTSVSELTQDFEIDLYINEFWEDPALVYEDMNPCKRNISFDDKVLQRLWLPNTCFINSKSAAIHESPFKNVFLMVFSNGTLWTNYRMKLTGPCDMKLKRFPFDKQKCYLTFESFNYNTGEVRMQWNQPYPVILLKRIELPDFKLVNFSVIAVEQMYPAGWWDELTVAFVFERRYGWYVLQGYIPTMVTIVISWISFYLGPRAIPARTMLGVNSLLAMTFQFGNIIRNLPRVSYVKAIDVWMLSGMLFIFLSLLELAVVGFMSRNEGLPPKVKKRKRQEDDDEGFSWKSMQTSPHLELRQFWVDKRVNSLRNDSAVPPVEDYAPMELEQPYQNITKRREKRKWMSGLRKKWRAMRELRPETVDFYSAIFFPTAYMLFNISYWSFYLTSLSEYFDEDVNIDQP
Source text: (§1) For capped cRNA synthesis, cDNAs were subcloned into the pT7N vector, which contains a T7 RNA polymerase promoter, the 5′- and 3′-UTR of Xenopus laevis beta-globin, and an encoded poly(A+) tail (Cary R B, Klymkowsky M W, Evans R M, Domingo A, Dent J A, Backhus L E (1994) Vimentin's tail interacts with actin-containing structures in vivo. J Cell Sci 107:1609-1622.). The pT7NcDNA constructs were linearized with Sal I (ACC-2D6.3) or BamHI (ACC-1G6.4) and transcribed using the MEGAscript Kit (Ambion, Austin, Tex., USA). Synthesized cRNAs were recovered by LiCl precipitation and resuspended in nuclease-free H2O at final concentration of 1 microgram/ml.
(§2) Oocytes were harvested from mature female Xenopus leavis according to standard procedures (Goldin, A. L. (1992) Maintenance of Xenopus laevis and oocyte injection. Methods Enzymol. 207: 266-79.). To remove inner ovarian epithelium, thecal cell layer, and follicular cells, the ovarian pieces were placed in OR-2 solution: 82.5 mM NaCl, 2 mM KCl, 1 mM MgCl2, and 5 mM Hepes (pH 7.5) containing 1 mg/ml type I collagenase (Sigma, St Louis Mo., USA) either for 3 hours at 20° C. with gentle agitation or for 1 hour followed by manual defolliculization. The stage VI defolliculated oocytes were placed in ND96 solution (96 mM NaCl, 2 mM KCl, 1.8 mM CaCl2, 1 mM MgCl2, and 5 mM Hepes, pH7.5). Oocytes were injected with 40 nl of cRNA using the Nanoject system (Drummond Scientific, Broomall, Pa., USA). Injected oocytes were incubated at 20° C. in ND96 supplemented with […] gentamycin and […] pyruvate. Oocytes were allowed to express cRNA for two days before measurements were taken.
(§3) Two-electrode voltage-clamp recordings were performed using the AxoClamp 2B amplifier (Axon Instruments, Foster City, Calif., USA). Microelectrodes were pulled from borosilicate glass capillaries (Word Precision Instruments, Inc., Sarasota, Fla., USA) on the P-97 micropipette puller Sutter Instruments, Novato, Calif., USA). […] Each oocyte was placed in RC-12 recording chamber (Warner Instrument Inc., Hamden, Conn., USA) or a Maltese cross chamber (ALA Scientific Instruments, Westbury, N.Y., USA) and clamped at −80 mV. Data were acquired at 1 kHz using Clampex software (Axon Instruments, Foster City, Calif., USA).
(§4) Dose-response curves for agonists were generated by their applying the agonist in increasing concentrations followed by 3-9 min washes at each concentration. To determine EC50 and Hill coefficient agonist dose response curves were fit using the following equation: f(I)=(Imax[I]^n/(EC50^n+[I]^n))+Imin, where I is the normalized response to agonist at certain concentration, Imax is the maximal response elicited by a saturating concentration of agonist, EC50 is the concentration of agonist inducing half-maximal response, n is the Hill coefficient, and Imin is the normalized response at lowest agonist concentration.
(§5) The mean and standard error of the mean of peak current responses of at least three oocytes per experiment are represented.
(§6) All drugs were obtained from Sigma-Aldrich (St. Louis, Mo. USA) except imidicloprid (IMI) which was provided by Crompton Co. (Guelph, ON, Canada). Drugs were dissolved in ND96 except IMI, which was made as a stock solution in DMSO and diluted to working concentrations in ND96. If required, drug solutions were adjusted to pH 7.5 with either NaOH or HCl. Fresh solutions were prepared before measurements and stored at 4° C. for 1-5 days.

[4] = biological target: ACC-2D6.3 channel (Caenorhabditis elegans, UniProt Q18812); test: cell-based
Chain of ACC-2D6.3 channel (Caenorhabditis elegans, UniProt Q18812) (Q18812 whole entry, looked up): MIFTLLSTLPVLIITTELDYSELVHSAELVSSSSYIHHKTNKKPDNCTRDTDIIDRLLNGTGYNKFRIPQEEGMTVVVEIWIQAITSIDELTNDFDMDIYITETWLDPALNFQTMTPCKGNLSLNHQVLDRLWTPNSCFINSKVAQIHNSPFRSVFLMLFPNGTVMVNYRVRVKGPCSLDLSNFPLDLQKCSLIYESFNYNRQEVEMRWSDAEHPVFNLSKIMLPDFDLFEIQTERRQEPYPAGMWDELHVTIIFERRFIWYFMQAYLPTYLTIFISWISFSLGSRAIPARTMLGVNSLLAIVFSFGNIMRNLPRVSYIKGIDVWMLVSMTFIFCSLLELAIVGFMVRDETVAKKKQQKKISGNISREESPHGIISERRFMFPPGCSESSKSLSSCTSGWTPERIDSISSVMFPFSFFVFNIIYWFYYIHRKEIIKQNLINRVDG
Source text: as §1, §2, §3, §4, §5, §6

[5] = test system: ACC-2D6.3 channel; test: cell-based
Source text: as §1, §2, §3, §4, §5, §6

[6] = test system: ACC-2D6.3+ACC-3D10.5; format: cell-based, C. elegans; settings: 1 mM
Procedure: (§7) Oocytes were harvested from mature female Xenopus leavis according to standard procedures (Goldin, A. L. (1992) Maintenance of Xenopus laevis and oocyte injection. Methods Enzymol. 207: 266-79.). To remove inner ovarian epithelium, thecal cell layer, and follicular cells, the ovarian pieces were placed in OR-2 solution: 82.5 mM NaCl, 2 mM KCl, 1 mM MgCl2, and 5 mM Hepes (pH 7.5) containing 1 mg/ml type I collagenase (Sigma, St Louis Mo., USA) either for 3 hours at 20° C. with gentle agitation or for 1 hour followed by manual defolliculization. The stage VI defolliculated oocytes were placed in ND96 solution (96 mM NaCl, 2 mM KCl, 1.8 mM CaCl2, 1 mM MgCl2, and 5 mM Hepes, pH7.5). Oocytes were injected with 40 nl of cRNA using the Nanoject system (Drummond Scientific, Broomall, Pa., USA). Injected oocytes were incubated at 20° C. in ND96 supplemented with 100 mg/ml gentamycin and 550 mg/ml pyruvate. Oocytes were allowed to express cRNA for two days before measurements were taken.

[7] = test system: ACC-3D10.5; test: Two-electrode voltage-clamp of Xenopus oocytes injected with ACC-3D10.5 cRNA; format: cell-based, C. elegans; settings: 1 mM
Procedure: as §7

[8] = test system: ACC-2D6.3+ACC-4E9.9; format: cell-based, C. elegans; settings: 1 mM
Procedure: as §7

[9] = test system: ACC-4E9.9; test: Two-electrode voltage-clamp of Xenopus oocytes injected with ACC-4E9.9 cRNA; format: cell-based, C. elegans; settings: 1 mM
Procedure: as §7

[10] = read-out: Agonist: percentage of maximal acetylcholine-elicited response
[11] = concentration tested in brackets where printed
[12] = concentration tested in brackets where printed, listed as d-tubocurarine

Molecule: O=c1cccc2n1C[C@@H]1CNC[C@H]2C1 [cytisine]
- IC50 [1]: 43.1 µM
- agonist action (in words) [1]: no agonistic activity
- antagonist action (in words) [1]: Antagonist
- agonist action (in words) [2]: Weak partial agonist
- estimated relative effectiveness versus acetylcholine [2]: ~0.14
- EC50 [2]: ~100 µM
- Antagonist: percentage decrease in a response to acetylcholine [3]: 66.8 ± 3% and 95 ± 1.4%
- IC50 [3]: ~10 µM
- agonist action (in words) [3]: weak agonists and/or antagonists; also recorded: no agonistic activity
- antagonist action (in words) [3]: only as an antagonist
- activation at 800 µM [3, 10]: 0%
- Agonist: percentage of maximal acetylcholine-elicited response [4]: 15.5 ± 2.9%
- EC50 [4]: ~1000 µM
- IC50 [4]: ~100 µM
- concentrations at which channels responded [5]: 800 to 1000 µM

Molecule: O=C1C[C@@H]2OCC=C3CN4CC[C@]56c7ccccc7N1[C@H]5[C@H]2[C@H]3C[C@H]46 [strychnine]
- IC50 [1]: 0.0179 µM
- Antagonist: percentage decrease in a response to acetylcholine [3]: 96 ± 1.2%
- IC50 ([3]; IC50 (block of channel)): 4.61 ± 0.27 µM
- IC50 ([3]; IC50 (range or bound)): ~10 µM
- activation at 50 µM [3, 10]: 0%
- Agonist: percentage of maximal acetylcholine-elicited response [4]: 0%
- antagonist action (in words) [4]: Antagonist
- estimated Hill coefficient (antagonist) [4]: 1.38±0.12
- IC50 ([4]; IC50 (block of channel)): 2.95 ± 0.8 µM
- IC50 ([4]; IC50 (range or bound)): ~10 µM

Molecule: NCCc1c[nH]c2ccc(O)cc12 [serotonin]
- response (in words) [6]: Neither did ACC-2D6.3+ACC-3D10.5 nor ACC-2D6.3+ACC-4E9.9 expressing oocytes respond
- response (in words) [7]: not observed
- response (in words) [8]: Neither did ACC-2D6.3+ACC-3D10.5 nor ACC-2D6.3+ACC-4E9.9 expressing oocytes respond
- response (in words) [3]: not observed
- activation at 1000 µM [3, 10]: 0%
- current response ([4]; 1 mM): 10-30 nA
- Agonist: percentage of maximal acetylcholine-elicited response ([4]; compound at 1 mM): 3.7 ± 0.4%
- response (in words) [9]: not observed

Molecule: NCCCC(=O)O [GABA]
- response (in words) [6]: Neither did ACC-2D6.3+ACC-3D10.5 nor ACC-2D6.3+ACC-4E9.9 expressing oocytes respond
- response (in words) [7]: did not respond
- response (in words) [8]: Neither did ACC-2D6.3+ACC-3D10.5 nor ACC-2D6.3+ACC-4E9.9 expressing oocytes respond
- response (in words) [3]: did not respond
- response (in words) ([4]; 1 mM): did not respond
- response (in words) [9]: did not respond

Molecule: O=[N+]([O-])NC1=NCCN1Cc1ccc(Cl)nc1 [IMI, imidacloprid]
- Antagonist: percentage decrease in a response to acetylcholine [3]: 0%
- activation at 10 µM ([3]; compound at 10 μM, read-out: Agonist: percentage of maximal acetylcholine-elicited response): 0%
- antagonist action (in words) [3, 11]: no effect
- antagonist action (in words) [4]: only partially blocked

Molecule: NCCc1c[nH]cn1 [histamine]
- response (in words) [7]: did not respond
- response (in words) [3]: did not respond
- response (in words) [9]: did not respond

Molecule: COc1cc2c3cc1Oc1cc(ccc1O)C[C@@H]1c4c(cc(OC)c(O)c4Oc4ccc(cc4)C[C@@H]3N(C)CC2)CC[N+]1(C)C [d-TC, d-tubocurarine]
- IC50 ([1]; Table 4, read-out: IC50): 0.3 µM
- antagonist action (in words) [1]: Antagonist
- IC50 ([2]; Table 4): ~40 µM
- antagonist action (in words) [2]: Antagonist
- Antagonist: percentage decrease in a response to acetylcholine [3]: 100^a ^ %
- IC50 ([3]; Table 4, order of magnitude, read-out: IC50 (range or bound)): < 20 µM
- Agonist: percentage of maximal acetylcholine-elicited response ([3]; compound at 20 μM): 0%
- antagonist action (in words) [3, 11]: Antagonist
- antagonist action (in words) [3, 12]: irreversibly
- Agonist: percentage of maximal acetylcholine-elicited response ([4]; compound at 20 μM): 0%
- antagonist action (in words) [4, 11]: Antagonist
- antagonist action (in words) [4, 12]: irreversibly
- IC50 ([4]; read-out: IC50 (range or bound), Table 4, order of magnitude): < 20 µM

Molecule: CO[C@H]1CC=C2CCN3CCC4=C(CC(=O)OC4)[C@]23C1 [dβe, dihydro-β-erythroidine]
- IC50 ([1]; Table 4, read-out: IC50): 24.2 µM
- antagonist action (in words) [1]: Antagonist
- IC50 ([2]; Table 4): ~20 µM
- antagonist action (in words) [2]: Antagonist
- IC50 ([3]; Table 4, order of magnitude, read-out: IC50 (range)): ~100 µM
- Agonist: percentage of maximal acetylcholine-elicited response ([3]; compound at 0.4 mM): 0%
- antagonist action (in words) [3, 11]: Antagonist
- antagonist action (in words) ([3]; concentration tested in brackets where printed, listed as Dihydro-β-erythroidine): antagonist
- antagonist action (in words) ([3]; concentration tested in brackets where printed, listed as dihydro-β-erythroidine): antagonists
- Agonist: percentage of maximal acetylcholine-elicited response [4]: 0%
- IC50 [4]: ~10 µM

Molecule: CN1CCCC1c1cccnc1 (stereo not shown) [nicotine]
- agonist action (in words) [1]: no agonistic activity
- antagonist action (in words) [1]: Antagonist
- EC50 ([2]; Table 4, order of magnitude): ~100 µM
- agonist action (in words) [2]: Weak partial agonist
- EC50 [3]: ~1000 µM
- IC50 [3]: ~100 µM
- agonist action (in words) [3]: weak agonists and/or antagonists; also recorded: very weak agonist; also recorded: poorly; also recorded: Weak partial agonist
- antagonist action (in words) [3]: partial antagonist
- activation at 100 µM [3, 10]: 5.2 ± 1.2%
- activation at 1000 µM [3, 10]: 12 ± 2.7%
- EC50 [4]: ~1000 µM
- antagonist action (in words) [4]: no antagonistic
- concentrations at which channels responded [5]: 800 to 1000 µM

Molecule: α-bungarotoxin [α-BT]
- antagonist action (in words) [1]: Antagonist
- IC50 ([1]; read-out: IC50): 0.004 µM
- IC50 [2]: ~1 µM
- antagonist action (in words) [2]: Antagonist
- Agonist: percentage of maximal acetylcholine-elicited response [3]: 0%
- Antagonist: percentage decrease in a response to acetylcholine [3]: 0%
- antagonist action (in words) [3]: no effect; also recorded: not blocked; also recorded: no antagonistic
- Agonist: percentage of maximal acetylcholine-elicited response [4]: 0%
- Antagonist: percentage decrease in a response to acetylcholine [4]: 0%

Molecule: C[C@@H]1O[C@H](C[N+](C)(C)C)C[C@H]1O [muscarine]
- IC50 [1]: 84 µM
- agonist action (in words) [1]: no agonistic activity
- antagonist action (in words) [1]: Antagonist
- Antagonist: percentage decrease in a response to acetylcholine [3]: 51.6 ± 5.9%
- IC50 (range) [3]: IC50: mM range
- agonist action (in words) [3]: no agonistic activity
- antagonist action (in words) [3]: Antagonist; also recorded: weak antagonistic activity
- activation at 1000 µM [3, 10]: 0%

Molecule: N[C@@H](CCC(=O)O)C(=O)O [glutamate]
- response (in words) [6]: Neither did ACC-2D6.3+ACC-3D10.5 nor ACC-2D6.3+ACC-4E9.9 expressing oocytes respond
- response (in words) [7]: did not respond
- response (in words) [8]: Neither did ACC-2D6.3+ACC-3D10.5 nor ACC-2D6.3+ACC-4E9.9 expressing oocytes respond
- response (in words) [3]: did not respond
- response (in words) ([4]; 1 mM): did not respond
- response (in words) [9]: did not respond

Molecule: CN1[C@@H]2CC[C@H]1C[C@@H](OC(=O)C(CO)c1ccccc1)C2 (stereo partly shown) [atropine]
- IC50 [1]: 1 µM
- agonist action (in words) [1]: no agonistic
- antagonist action (in words) [1]: Antagonist

Molecule: C[N+](C)(C)CCCCCC[N+](C)(C)C [C6, hexamethonium]
- agonist action (in words) [3]: simultaneously as an agonist and an antagonist
- antagonist action (in words) [3]: antagonists
- activation at 200 µM [3, 10]: 0%
- activation at 1000 µM [3, 10]: 10 ± 2.6%
- Agonist: percentage of maximal acetylcholine-elicited response [4]: 0%
- antagonist action (in words) [4]: antagonists

Molecule: NCC(=O)O [glycine]
- response (in words) [7]: did not respond
- response (in words) [3]: did not respond
- response (in words) [9]: did not respond
